For assay [1], the species on record is Homo sapiens. The assay can be described thus: Agonist activity at recombinant human GABA-A alpha3beta2gamma2S receptor transiently expressed in human tsA201 cells assessed as GABA-induced maximum response incubated for 30 mins and measured up to 90 secs by FMP dye based FLIPR membrane potential blue assay relative to GABA. In kind it is cell-based.
For assay [2], the target named is Gamma-aminobutyric acid receptor subunit alpha-5/beta-2/gamma-2 (Homo sapiens) (UniProt P47870+P18507+P31644). The experiment in a line: Agonist activity at recombinant human GABA-A alpha5beta2gamma2S receptor transiently expressed in human tsA201 cells assessed as GABA-induced maximum response incubated for 30 mins and measured up to 90 secs by FMP dye based FLIPR membrane potential blue assay relative to GABA. Type of assay: cell-based.

Assay [3] has as its target Sodium- and chloride-dependent GABA transporter 1 (Homo sapiens, UniProt P30531). The assay can be described thus: Inhibition of human GAT1 expressed in Flp-In CHO cells assessed as reduction in [3H]GABA uptake at 100 uM incubated for 3 mins by liquid scintillation counting method relative to control. Type of assay: cell-based.
Assay [4] concerns the target T1, GABA-A receptor; alpha-1/beta-2/gamma-2 (Homo sapiens) (UniProt P14867+P47870+P18507). The experiment in a line: Agonist activity at recombinant human GABA-A alpha1beta2gamma2S receptor transiently expressed in human tsA201 cells incubated for 30 mins and measured up to 90 secs by FMP dye based FLIPR membrane potential blue assay. In kind it is cell-based.
Assay [5] has as its target T2, Gamma-aminobutyric acid receptor subunit alpha-4/beta-2/gamma-2 (Homo sapiens, UniProt P47870+P18507+P48169). The assay can be described thus: Agonist activity at recombinant human GABA-A alpha4beta2gamma2S receptor transiently expressed in human tsA201 cells incubated for 30 mins and measured up to 90 secs by FMP dye based FLIPR membrane potential blue assay. In kind it is cell-based.

For assay [6], the species on record is Homo sapiens. The experiment in a line: Agonist activity at recombinant human GABA-A alpha3beta2gamma2S receptor transiently expressed in human tsA201 cells at >= 30 uM incubated for 30 mins and measured up to 90 secs by FMP dye based FLIPR membrane potential blue assay. In kind it is cell-based.
The target of assay [7] is T1, GABA-A receptor; alpha-1/beta-2/gamma-2 (Homo sapiens). The assay can be described thus: Agonist activity at recombinant human GABA-A alpha1beta2gamma2S receptor transiently expressed in human tsA201 cells at >= 10 uM incubated for 30 mins and measured up to 90 secs by FMP dye based FLIPR membrane potential blue assay. Type of assay: cell-based.
Assay [8] deals with T3, Sodium- and chloride-dependent GABA transporter 3 (Homo sapiens) (UniProt P48066).
T3 sequence (whole entry): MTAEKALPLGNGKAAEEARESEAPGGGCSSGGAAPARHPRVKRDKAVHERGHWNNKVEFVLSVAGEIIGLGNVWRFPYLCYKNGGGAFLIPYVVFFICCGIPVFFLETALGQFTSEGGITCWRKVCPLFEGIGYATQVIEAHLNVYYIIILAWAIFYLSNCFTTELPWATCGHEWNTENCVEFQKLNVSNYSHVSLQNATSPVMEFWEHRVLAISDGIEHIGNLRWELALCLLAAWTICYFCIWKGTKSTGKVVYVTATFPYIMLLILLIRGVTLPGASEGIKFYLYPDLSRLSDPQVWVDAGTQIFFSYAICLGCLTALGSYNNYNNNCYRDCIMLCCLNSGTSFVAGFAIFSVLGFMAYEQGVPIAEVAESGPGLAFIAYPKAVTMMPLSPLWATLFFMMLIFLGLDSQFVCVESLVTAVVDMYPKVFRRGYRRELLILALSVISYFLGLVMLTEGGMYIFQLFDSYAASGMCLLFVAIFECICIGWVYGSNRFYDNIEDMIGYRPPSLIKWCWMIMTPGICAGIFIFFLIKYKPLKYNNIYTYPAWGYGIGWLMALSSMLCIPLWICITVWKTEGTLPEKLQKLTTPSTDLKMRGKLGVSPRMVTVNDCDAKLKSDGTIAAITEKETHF
The assay can be described thus: Inhibition of human GAT3 expressed in Flp-In CHO cells assessed as reduction in [3H]GABA uptake at 100 uM incubated for 3 mins by liquid scintillation counting method relative to control. In kind it is cell-based.

The target of assay [9] is T4, Sodium- and chloride-dependent GABA transporter 2 (Homo sapiens) (UniProt Q9NSD5).
T4 sequence (whole entry): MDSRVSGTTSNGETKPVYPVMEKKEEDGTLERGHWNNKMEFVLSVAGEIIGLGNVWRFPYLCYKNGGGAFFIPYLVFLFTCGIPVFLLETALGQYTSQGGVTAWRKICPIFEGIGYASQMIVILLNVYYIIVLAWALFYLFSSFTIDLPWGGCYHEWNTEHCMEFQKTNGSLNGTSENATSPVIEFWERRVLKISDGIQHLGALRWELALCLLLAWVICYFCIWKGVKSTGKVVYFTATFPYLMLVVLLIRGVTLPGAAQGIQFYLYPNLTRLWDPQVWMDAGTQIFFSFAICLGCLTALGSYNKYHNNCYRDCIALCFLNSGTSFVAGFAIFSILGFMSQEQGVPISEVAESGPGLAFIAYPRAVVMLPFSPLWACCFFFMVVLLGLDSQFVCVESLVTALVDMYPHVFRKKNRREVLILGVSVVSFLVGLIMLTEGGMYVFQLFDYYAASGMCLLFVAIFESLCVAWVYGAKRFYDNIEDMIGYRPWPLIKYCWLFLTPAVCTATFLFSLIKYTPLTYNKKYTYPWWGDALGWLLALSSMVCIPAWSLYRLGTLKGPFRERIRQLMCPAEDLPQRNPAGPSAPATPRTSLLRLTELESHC
The experiment in a line: Inhibition of human GAT2 expressed in Flp-In CHO cells assessed as reduction in [3H]GABA uptake at 100 uM incubated for 3 mins by liquid scintillation counting method relative to control. In kind it is cell-based.

The target of assay [10] is T1, GABA-A receptor; alpha-1/beta-2/gamma-2 (Homo sapiens). The experiment in a line: Agonist activity at recombinant human GABA-A alpha1beta2gamma2S receptor transiently expressed in human tsA201 cells assessed as GABA-induced maximum response incubated for 30 mins and measured up to 90 secs by FMP dye based FLIPR membrane potential blue assay relative to GABA. Type of assay: cell-based.

The species entered for assay [11] is Homo sapiens.
The target of assay [12] is T5, Sodium- and chloride-dependent betaine transporter (Homo sapiens) (UniProt P48065).
T5 sequence (whole entry): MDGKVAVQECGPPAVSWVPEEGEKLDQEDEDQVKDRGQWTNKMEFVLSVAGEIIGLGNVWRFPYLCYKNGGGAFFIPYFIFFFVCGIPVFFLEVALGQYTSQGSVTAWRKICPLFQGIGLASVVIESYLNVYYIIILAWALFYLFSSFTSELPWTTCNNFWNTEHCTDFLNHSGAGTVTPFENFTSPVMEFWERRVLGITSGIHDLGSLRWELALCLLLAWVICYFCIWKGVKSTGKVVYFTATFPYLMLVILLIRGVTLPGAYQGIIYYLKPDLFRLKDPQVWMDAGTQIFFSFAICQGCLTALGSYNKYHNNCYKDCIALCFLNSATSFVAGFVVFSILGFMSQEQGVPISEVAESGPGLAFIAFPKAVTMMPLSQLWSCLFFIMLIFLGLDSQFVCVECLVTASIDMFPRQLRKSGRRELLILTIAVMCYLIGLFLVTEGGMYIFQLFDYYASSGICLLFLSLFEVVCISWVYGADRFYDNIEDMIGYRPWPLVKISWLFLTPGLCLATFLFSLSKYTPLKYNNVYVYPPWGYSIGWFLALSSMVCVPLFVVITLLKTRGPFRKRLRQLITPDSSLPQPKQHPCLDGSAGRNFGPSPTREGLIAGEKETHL
The experiment in a line: Inhibition of human BGT1 expressed in Flp-In CHO cells assessed as reduction in [3H]GABA uptake at 100 uM incubated for 3 mins by liquid scintillation counting method relative to control. Type of assay: cell-based.

Assay [13] concerns the target Gamma-aminobutyric acid receptor subunit rho-1 (Homo sapiens, UniProt P24046). The assay can be described thus: Agonist activity at recombinant human GABA-A rho-1 receptor transiently expressed in human tsA201 cells assessed as GABA-induced maximum response incubated for 30 mins and measured up to 90 secs by FMP dye based FLIPR membrane potential blue assay relative to GABA. In kind it is cell-based.

The target of assay [14] is T2, Gamma-aminobutyric acid receptor subunit alpha-4/beta-2/gamma-2. The assay can be described thus: Agonist activity at recombinant human GABA-A alpha4beta2gamma2S receptor transiently expressed in human tsA201 cells assessed as GABA-induced maximum response incubated for 30 mins and measured up to 90 secs by FMP dye based FLIPR membrane potential blue assay relative to GABA. Type of assay: cell-based.

Assay [15] has the same target. The experiment in a line: Agonist activity at recombinant human GABA-A alpha4beta2gamma2S receptor transiently expressed in human tsA201 cells at >= 100 uM incubated for 30 mins and measured up to 90 secs by FMP dye based FLIPR membrane potential blue assay. Type of assay: cell-based.

Calls of active or inactive are those of the source. No cut-off for these calls is given here. Where only a bound is given, the exact number is not on record here.

Chain of Sodium- and chloride-dependent GABA transporter 1 (P30531 whole entry, looked up): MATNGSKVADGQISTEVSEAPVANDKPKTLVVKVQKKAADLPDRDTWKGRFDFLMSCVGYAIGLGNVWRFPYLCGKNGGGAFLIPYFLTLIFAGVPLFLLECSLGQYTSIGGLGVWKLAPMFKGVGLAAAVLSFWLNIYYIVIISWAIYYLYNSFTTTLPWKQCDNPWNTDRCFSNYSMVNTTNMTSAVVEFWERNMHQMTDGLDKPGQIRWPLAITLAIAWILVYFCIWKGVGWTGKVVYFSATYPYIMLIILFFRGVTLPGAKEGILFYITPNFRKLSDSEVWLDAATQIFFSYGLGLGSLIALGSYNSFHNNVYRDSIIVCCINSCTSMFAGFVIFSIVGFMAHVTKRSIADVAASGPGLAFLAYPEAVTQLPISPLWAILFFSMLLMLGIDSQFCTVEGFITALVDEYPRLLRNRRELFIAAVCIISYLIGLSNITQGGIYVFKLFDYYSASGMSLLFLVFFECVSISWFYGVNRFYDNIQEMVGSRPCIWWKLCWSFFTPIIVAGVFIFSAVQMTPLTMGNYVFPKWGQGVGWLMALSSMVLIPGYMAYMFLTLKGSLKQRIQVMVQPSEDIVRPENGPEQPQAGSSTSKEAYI
Chain of Gamma-aminobutyric acid receptor subunit rho-1 (P24046 whole entry): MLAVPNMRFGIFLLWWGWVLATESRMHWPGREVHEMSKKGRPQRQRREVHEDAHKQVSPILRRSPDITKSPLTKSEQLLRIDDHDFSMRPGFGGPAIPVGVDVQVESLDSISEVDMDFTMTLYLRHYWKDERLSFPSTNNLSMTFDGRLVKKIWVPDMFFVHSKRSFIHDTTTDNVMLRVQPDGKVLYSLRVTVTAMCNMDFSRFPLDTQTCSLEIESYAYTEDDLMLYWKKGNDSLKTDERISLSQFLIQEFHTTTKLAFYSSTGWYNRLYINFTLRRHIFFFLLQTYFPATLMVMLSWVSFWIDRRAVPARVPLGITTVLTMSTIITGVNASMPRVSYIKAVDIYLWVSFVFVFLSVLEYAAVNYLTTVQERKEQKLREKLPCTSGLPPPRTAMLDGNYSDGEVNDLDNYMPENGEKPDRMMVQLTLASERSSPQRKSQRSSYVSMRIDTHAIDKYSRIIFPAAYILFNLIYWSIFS

With `CC(C(=O)O)C1CSC(N)=N1` (stereo in doubt; l-10b), the Rmax entry (in the assay filed under Homo sapiens [1]; in [10]; in assay [14]) was “inactive” in each case. In addition, the Rmax stood at 34% in [2] and 31% in assay [13]. Besides, the inhibition in [3], in [8], in assay [9] and in [12] was greater than 30% each time. In addition, the pEC50 entry (in [4]; in assay [5]; in the assay listed under Homo sapiens [11]) was “inactive” throughout. For the same compound, the outcome (in the assay listed under Homo sapiens [6]; in assay [7]; in assay [15]) was Active.

The values above are taken from ChEMBL document CHEMBL4396887, “Five-Membered N-Heterocyclic Scaffolds as Novel Amino Bioisosteres at γ-Aminobutyric Acid (GABA) Type A Receptors and GABA Transporters” (J Med Chem, 2019).
